Test results taken from patent publication US20240002383A1 (priority 2021, published 2024).
“Also recorded” adds a separate entry of the source.

Experiments:
[1] = tested on: cytokines in draining lymph nodes; details: mouse, in vivo
HIV NHR trimer (N3G) = format: in vivo; details: mice, CF501 as adjuvant, sera 7 days after the second vaccination
[2] = tested on: IFNγ, TNFα and IL-4 secretion; design: species or system mice; details: mouse, in vivo
[3] = tested on: IFNb, CXCL-10, CXCL-9, CCL-2, TNFα, IL-1β, and IL-6 in lymph nodes; experiment: Innate immune response in mice after intramuscular injection of STING agonists (qPCR of cytokines in draining lymph nodes); format: in vivo; details: 20 μg intramuscular, 6 hrs
SARS-CoV-2 pseudovirus = tested on: SARS-CoV-2 pseudovirus; design: species or system New Zealand white rabbits; details: rabbit, in vivo

Row | Compound | production of the cytokines in lymph nodes [3] | neutralizing antibodies relative to Alum (in words) (SARS-CoV-2 pseudovirus) | also measured
1 | CCn1nc(C)cc1C(=O)Nc1nc2cc(C(N)=O)cnc2n1C/C=C/Cn1c(NC(=O)c2cc(C)nn2CC)nc2cc(C(N)=O)cc(OCCCN3CCOCC3)c21 [CF501, (E)-3-(4-(5-carbamoyl-2-(1-ethyl-3-methyl-1H-pyrazole-5-carboxamido)-7-(3-morpholinopropoxy)-1H-benzo[d]imidazol-1-yl)but-2-en-1-yl)-2-(1-ethyl-3-methyl-1H-pyrazole-5-carboxamido)-3H-imidazo[4,5-b]pyridine-6-carboxamide] | can activate a large production of the cytokines; also recorded: more potently than cGAMP |  | inflammation in the mice (transient activation, safety) [1]: does not cause inflammation in the mice; antibody immune response to the HIV NHR trimer (N3G) (HIV NHR trimer (N3G)): can significantly enhance the antibody immune response in vaccinated mice; T cell immune response in mice [2]: can strongly activate the T cell immune response in mice
2 | CCn1nc(C)cc1C(=O)Nc1nc2cc(C(N)=O)cnc2n1C/C=C/Cn1c(NC(=O)c2cc(C)nn2CC)nc2cc(C(N)=O)cc(OCCCN3CCNCC3)c21 [CF508, (E)-3-(4-(5-carbamoyl-2-(1-ethyl-3-methyl-1H-pyrazole-5-carboxamido)-7-(3-(piperazin-1-yl)propoxy)-1H-benzo[d]imidazol-1-yl)but-2-en-1-yl)-2-(1-ethyl-3-methyl-1H-pyrazole-5-carboxamido)-3H-imidazo[4,5-b]pyridine-6-carboxamide] |  | could not induce more potent neutralizing antibodies relative to Alum in the rabbits | 
3 | CCn1nc(C)cc1C(=O)Nc1nc2cc(C(N)=O)cnc2n1C/C=C/Cn1c(NC(=O)c2cc(C)nn2CC)nc2cc(C(N)=O)cc(OCCN3CCOCC3)c21 [CF510, (E)-3-(4-(5-carbamoyl-2-(1-ethyl-3-methyl-1H-pyrazole-5-carboxamido)-7-(2-morpholinoethoxy)-1H-benzo[d]imidazol-1-yl)but-2-en-1-yl)-2-(1-ethyl-3-methyl-1H-pyrazole-5-carboxamido)-3H-imidazo[4,5-b]pyridine-6-carboxamide] |  | could not induce more potent neutralizing antibodies relative to Alum in the rabbits | 
4 | CCn1nc(C)cc1C(=O)Nc1nc2cc(C(N)=O)ccc2n1C/C=C/Cn1c(NC(=O)c2cc(C)nn2CC)nc2cc(C(N)=O)cnc21 [CF502, (E)-3-(4-(5-carbamoyl-2-(1-ethyl-3-methyl-1H-pyrazole-5-carboxamido)-1H-benzo[d]imidazol-1-yl)but-2-en-1-yl)-2-(1-ethyl-3-methyl-1H-pyrazole-5-carboxamido)-3H-imidazo[4,5-b]pyridine-6-carboxamide] |  | could not induce more potent neutralizing antibodies relative to Alum in the rabbits | 
5 | Nc1nc2c(ncn2[C@@H]2O[C@@H]3COP(=O)(O)O[C@H]4[C@@H](O)[C@H](n5cnc6c(N)ncnc65)O[C@@H]4COP(=O)(O)O[C@H]3[C@H]2O)c(=O)[nH]1 [cGAMP, 3′-3′ cGAMP, reference compound] | can activate a large production of the cytokines |  | 
6 | CCn1nc(C)cc1C(=O)/N=c1\n(C)c2cc(C(N)=O)cnc2n1C/C=C/Cn1/c(=N/C(=O)c2cc(C)nn2CC)n(C)c2cc(C(N)=O)cc(OCCCN3CCOCC3)c21 [CF512, (E)-3-((E) 4-((E)-5-carbamoyl-2-((1-ethyl-3-methyl-1H-pyrazole-5-carbonyl)imino)-3-methyl-7-(3-morpholinopropoxy)-2,3-dihydro-1H-benzo[d]imidazol-1-yl)but-2-en-1-yl)-2-((1-ethyl-3-methyl-1H-pyrazole-5-carbonyl)imino)-1-methyl-2,3-dihydro-1H-imidazo[4,5-b]pyridine-6-carboxamide] |  | could not induce more potent neutralizing antibodies relative to Alum in the rabbits | 
